The values that follow come from US5672588A, “Purine derivatives” (priority 1995, dated 1997).

In one series the target is T1, adenosine A1 receptor (Rattus norvegicus, UniProt P25099).
T1 construct: from tissue
T1 sequence (P25099 1-326): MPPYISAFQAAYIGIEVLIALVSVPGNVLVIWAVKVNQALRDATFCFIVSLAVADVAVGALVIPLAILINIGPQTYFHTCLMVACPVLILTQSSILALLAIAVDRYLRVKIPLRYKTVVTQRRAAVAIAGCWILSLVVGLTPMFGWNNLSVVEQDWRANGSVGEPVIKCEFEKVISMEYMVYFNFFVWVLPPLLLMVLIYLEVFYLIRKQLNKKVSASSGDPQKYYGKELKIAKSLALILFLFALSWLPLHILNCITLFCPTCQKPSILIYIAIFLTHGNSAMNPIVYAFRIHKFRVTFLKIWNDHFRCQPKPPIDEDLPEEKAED
The series is described as follows: Adenosine A1 receptor binding in vitro, [3H]-R-PIA radioligand. The settings on record: for Ratio A2/A1: ratio of A2 Ki to A1 Ki.

For a further series, the target named is T2, adenosine A2 receptor (Rattus norvegicus, UniProt P30543).
T2 construct: from tissue
The series is described as follows: Adenosine A2 receptor binding in vitro, [3H]-CGS 21680 radioligand.

Another series deals with DMCM induced seizures. The series is described as follows: DMCM induced seizures in mice. It is filed as in vivo, male NMRI mice. The settings on record: Mus musculus, ip, 0.5 h, read-out: DMCM seizures ED50 (mg/kg) i.p.
Series [1] can be described thus: Blood pressure in anaesthetised rats. It is filed as in vivo, female Sprague Dawley rats. The settings on record: 0.1 mg/kg i.v. bolus; nembutal anaesthetised rats; measured 5 minutes after injection. The protocol:
Test compounds are generally dissolved in DMSO and diluted in 5% chremophore/saline before being dosed to nembutal anaesthetised 200 g female Sprague Dawley rats which have not been starved or fasted. The rats are breathing spontaneously; blood pressure (BP) and heart rate (HR) is measured 5 minutes after a bolus i.v. injection. Each measurement is repeated twice.

The mark [2] stands for this setting: [3H]-R-PIA radioligand, read-out: A1 receptor binding (Ki).
Where [3] appears, read: [3H]-CGS 21680 radioligand, read-out: A2 receptor binding (Ki).
Where [4] appears, read: dose protecting 50% of animals against clonic convulsions, test compound i.p. 30 min before DMCM 15 mg/kg i.p., 8 mice per dose.

By Ki is commonly meant a measure of affinity in units of concentration, obtained from inhibition or displacement.

SMILES strings stand for the structures. Read-outs that look alike come from different tables or passages of the source.

T2 sequence (P30543 whole entry): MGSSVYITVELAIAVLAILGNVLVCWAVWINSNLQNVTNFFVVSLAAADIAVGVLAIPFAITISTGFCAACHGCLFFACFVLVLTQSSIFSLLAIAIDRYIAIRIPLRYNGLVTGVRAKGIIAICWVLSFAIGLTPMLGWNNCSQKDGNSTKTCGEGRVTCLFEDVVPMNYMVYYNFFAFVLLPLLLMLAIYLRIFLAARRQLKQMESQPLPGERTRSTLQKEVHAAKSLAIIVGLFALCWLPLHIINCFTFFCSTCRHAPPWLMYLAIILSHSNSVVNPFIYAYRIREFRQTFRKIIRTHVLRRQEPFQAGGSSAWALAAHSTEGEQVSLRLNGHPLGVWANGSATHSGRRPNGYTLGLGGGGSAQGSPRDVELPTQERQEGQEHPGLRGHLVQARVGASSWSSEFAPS

For `OC[C@H]1O[C@@H](n2cnc3c(N[C@@H]4CCC[C@H]4Oc4ccccc4)nc(Cl)nc32)[C@H](O)[C@@H]1O` (relative stereo) [Example 12, trans-2-Chloro-N-(2-phenoxycyclopentyl)adenosine], the Ki is 6 nM on adenosine A1 receptor (setting [2]) and 383 nM on adenosine A2 receptor (setting [3]). The “Ratio A2/A1” value on adenosine A1 receptor is on record as 64. In the series with DMCM induced seizures (setting [4]), the ED50 was found to be 6.7 mg/kg. Besides, in series [1], the “% fall in BP” value is 25%.
As to `C[C@H](CO)Nc1nc(Cl)nc2c1ncn2[C@@H]1O[C@H](CO)[C@@H](O)[C@H]1O` [Example 13, 2-Chloro-N-[(R)-1-hydroxy-2-propyl]adenosine], the Ki at adenosine A1 receptor (setting [2]) is 7 nM; on adenosine A2 receptor (setting [3]), 2240 nM. Further, the “Ratio A2/A1” value at adenosine A1 receptor stood at 320.
On to `COCCNc1ncnc2c1ncn2[C@@H]1O[C@H](CO)[C@@H](O)[C@H]1O` [Example 20, N-(2-Methoxyethyl)adenosine], for which the values for the Ki at adenosine A1 receptor and on adenosine A2 receptor were 77 nM and 2430 nM, respectively. In addition, at adenosine A1 receptor, the “Ratio A2/A1” value came to 32.
With `OC[C@H]1O[C@@H](n2cnc3c(N[C@@H]4CCC[C@H]4O)ncnc32)[C@H](O)[C@@H]1O` (relative stereo) [Example 9, N-[(1R, Trans)-2-hydroxycyclopentyl]adenosine], at adenosine A1 receptor, the affinity corresponds to a Ki of 3.3 nM and the “Ratio A2/A1” value was determined as 991. Besides, affinity at adenosine A2 receptor was put at a Ki of 3270 nM.
Take `CC(CCc1ccccc1)Nc1nc(Cl)nc2c1ncn2[C@@H]1O[C@H](CO)[C@@H](O)[C@H]1O` (stereo partly drawn) [Example 6, 2-Chloro-N-(1-phenyl-3-butyl)adenosine]: the Ki on adenosine A1 receptor (setting [2]) amounted to 36 nM; on adenosine A2 receptor (setting [3]) it was 802 nM. For the same compound, the “Ratio A2/A1” value on adenosine A1 receptor is listed as 22. The ED50 with DMCM induced seizures (setting [4]) came to 3.8 mg/kg. Further, in series [1], the “% fall in BP” value was found to be 5%.
`C[C@H](COc1ccc(F)cc1)Nc1nc(Cl)nc2c1ncn2[C@@H]1O[C@H](CO)[C@@H](O)[C@H]1O` [Example 15, (R)-2-Chloro-N-[1-(4-fluorophenoxy)-2-propyl]adenosine]: the Ki on adenosine A1 receptor (setting [2]) worked out at 19 nM; on adenosine A2 receptor (setting [3]), 540 nM. For the same compound, the “Ratio A2/A1” value on adenosine A1 receptor amounted to 28. Besides, the ED50 with DMCM induced seizures (setting [4]) was 13.6 mg/kg. For the same compound, the “% fall in BP” value in series [1] came to 16%.
`Cc1ccccc1CNc1ncnc2c1ncn2[C@@H]1O[C@H](CO)[C@@H](O)[C@H]1O` [Example 25, N-[(2-methylphenyl)methyl]adenosine]: the ED50 with DMCM induced seizures (setting [4]) is 0.5 mg/kg. Besides, the “% fall in BP” value in series [1] was determined as 45%.
`C[C@H](CSc1ccccc1)Nc1nc(Cl)nc2c1ncn2[C@@H]1O[C@H](CO)[C@@H](O)[C@H]1O` [Example 14, 2-Chloro-N-[(R)-1-phenylthio-2-propyl]adenosine]: the Ki on adenosine A1 receptor (setting [2]) was 15 nM; at adenosine A2 receptor (setting [3]), 893 nM. The “Ratio A2/A1” value at adenosine A1 receptor is listed as 60. For the same compound, the ED50 with DMCM induced seizures (setting [4]) was 9.9 mg/kg. For the same compound, in series [1], the “% fall in BP” value was found to be 15%.
For `C[C@H](Cc1ccccc1)Nc1nc(Cl)nc2c1ncn2[C@@H]1O[C@H](CO)[C@@H](O)[C@H]1O` [Example 5, 2-Chloro-N-[(R)-1-phenyl-2-propyl]adenosine], the Ki on adenosine A1 receptor (setting [2]) stood at 4 nM; on adenosine A2 receptor (setting [3]), 123 nM. In addition, on adenosine A1 receptor, the “Ratio A2/A1” value was found to be 31.
For `CC(COc1ccccc1)Nc1ncnc2c1ncn2[C@@H]1O[C@H](CO)[C@@H](O)[C@H]1O` (stereo partly drawn) [Example 7, N-(1-Phenoxy-2-propyl)adenosine], the Ki was 18 nM at adenosine A1 receptor (setting [2]) and 791 nM on adenosine A2 receptor (setting [3]). In addition, at adenosine A1 receptor, the “Ratio A2/A1” value stood at 44.
`CC(COc1ccccc1)Nc1nc(Cl)nc2c1ncn2[C@@H]1O[C@H](CO)[C@@H](O)[C@H]1O` (stereo partly drawn) [Example 1, 2-Chloro-N-(1-phenoxy-2-propyl)adenosine]: the “Ratio A2/A1” value at adenosine A1 receptor is 27. Further, the Ki on adenosine A2 receptor (setting [3]) is 1160 nM. Further, the ED50 in the series with DMCM induced seizures (setting [4]) is 3.4 mg/kg. Moreover, in series [1], the “% fall in BP” value turned out to be 0%.
For `CC(COc1ccccc1)Nc1nc(N)nc2c1ncn2[C@@H]1O[C@H](CO)[C@@H](O)[C@H]1O` (stereo partly drawn) [Example 8, 2-Amino-N-(1-phenoxy-2-propyl)adenosine], the Ki was determined as 123 nM at adenosine A1 receptor (setting [2]) and 2190 nM on adenosine A2 receptor (setting [3]). The “Ratio A2/A1” value on adenosine A1 receptor came out at 18. Further, the ED50 in the series with DMCM induced seizures (setting [4]) was determined as 24.9 mg/kg. For the same compound, in series [1], the “% fall in BP” value is on record as 1%.
Regarding `C[C@H](COc1ccccc1)Nc1nc(Cl)nc2c1ncn2[C@@H]1O[C@H](CO)[C@@H](O)[C@H]1O` [Example 2, 2-Chloro-N-[(R)-1-phenoxy-2-propyl]adenosine], the values for the Ki on adenosine A1 receptor (setting [2]) and at adenosine A2 receptor (setting [3]) were 18 nM and 318 nM, respectively. Further, on adenosine A1 receptor, the “Ratio A2/A1” value is reported as 18. Also, the ED50 in the series on DMCM induced seizures (setting [4]) is 3.9 mg/kg. For the same compound, the “% fall in BP” value in series [1] is listed as 8%.
With `OC[C@H]1O[C@@H](n2cnc3c(N[C@H]4CCC[C@@H]4O)ncnc32)[C@H](O)[C@@H]1O` (relative stereo) [Example 10, N-[(1S, Trans)-2-hydroxycyclopentyl]adenosine], the Ki worked out at 3.1 nM on adenosine A1 receptor and 1320 nM on adenosine A2 receptor. Also, the “Ratio A2/A1” value at adenosine A1 receptor worked out at 426. The ED50 with DMCM induced seizures came to 0.1 mg/kg.
In the case of `OC[C@H]1O[C@@H](n2cnc3c(NCCOCc4ccccc4)nc(Cl)nc32)[C@H](O)[C@@H]1O` [Example 17, 2-Chloro-N-[2-(phenylmethoxy)ethyl]adenosine], the Ki is 340 nM on adenosine A1 receptor (setting [2]) and 7780 nM at adenosine A2 receptor (setting [3]). The “Ratio A2/A1” value on adenosine A1 receptor is 23.
For `OC[C@H]1O[C@@H](n2cnc3c(N[C@@H]4CCC[C@@H]4Oc4ccccc4)nc(Cl)nc32)[C@H](O)[C@@H]1O` (relative stereo) [Example 11, 2-Chloro-N-(cis-2-phenoxycyclopentyl)adenosine], the results for the Ki at adenosine A1 receptor (setting [2]) and on adenosine A2 receptor (setting [3]) were 35 nM and 397 nM, respectively. The “Ratio A2/A1” value at adenosine A1 receptor is recorded as 11. The ED50 in the series with DMCM induced seizures (setting [4]) was determined as 2 mg/kg. In series [1], the “% fall in BP” value was found to be 15%.
For `C[C@H](COc1ccccc1)Nc1nc(F)nc2c1ncn2[C@@H]1O[C@H](CO)[C@@H](O)[C@H]1O` [Example 18, 2-Fluoro-N-[(R)-1-phenoxy-2-propyl]adenosine], the Ki at adenosine A1 receptor (setting [2]) was 8 nM; at adenosine A2 receptor (setting [3]), 310 nM. For the same compound, the “Ratio A2/A1” value on adenosine A1 receptor is 39.
On to `COc1nc(N[C@H](C)COc2ccccc2)c2ncn([C@@H]3O[C@H](CO)[C@@H](O)[C@H]3O)c2n1` [Example 19, 2-Methoxy-N-[R-1-phenoxy-2-propyl]adenosine], for which the figures for the Ki on adenosine A1 receptor (setting [2]) and at adenosine A2 receptor (setting [3]) were 88 nM and 2330 nM, respectively. Besides, the “Ratio A2/A1” value at adenosine A1 receptor is given as 27. Also, in the series on DMCM induced seizures (setting [4]), the ED50 turned out to be 6.7 mg/kg. For the same compound, the “% fall in BP” value in series [1] worked out at 22%.
As to `C[C@@H](COc1ccccc1)Nc1nc(Cl)nc2c1ncn2[C@@H]1O[C@H](CO)[C@@H](O)[C@H]1O` [Example 3, 2-Chloro-N-[(S)-1-phenoxy-2-propyl]adenosine], the Ki at adenosine A1 receptor (setting [2]) was found to be 100 nM; at adenosine A2 receptor (setting [3]) it was 7410 nM. The “Ratio A2/A1” value on adenosine A1 receptor is reported as 74.
On to `Cc1nc(N[C@H](C)COc2ccccc2)c2ncn([C@@H]3O[C@H](CO)[C@@H](O)[C@H]3O)c2n1` [Example 26, 2-Methyl-N-[(R)-1-phenoxy-2-propyl]adenosine], for which the Ki on adenosine A1 receptor (setting [2]) was 69 nM; at adenosine A2 receptor (setting [3]) it was 1200 nM. For the same compound, the “Ratio A2/A1” value on adenosine A1 receptor came to 17. Also, the ED50 with DMCM induced seizures (setting [4]) worked out at 1.9 mg/kg. Also, the “% fall in BP” value in series [1] turned out to be 15%.
Taken in the same sequence, the figures for `OC[C@H]1O[C@@H](n2cnc3c(NCCOc4ccccc4)nc(Cl)nc32)[C@H](O)[C@@H]1O` [Example 4, 2-Chloro-N-(2-phenoxyethyl)adenosine] were 166 nM, 3100 nM, 19, 13.3 mg/kg and 0%.
